Test [1] deals with Capan-1 (K-Ras G12V). Nature of the test: CellTiter-Glo cell viability assay, 5-day treatment. The settings on record: Homo sapiens, CAPAN-1, 120 h, 5-day treatment; read-out: Capan-1 Cell Viability assay data (K-Ras G12V, IC50). Format: cell-based. The essentials: (§1)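 Five-day compound treatment of plated cells; luminescent read after ~30 min at RT. Percent-of-DMSO data fit to a four-parameter logistic model.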
A general note: Cellular ATP, detected with luciferase, serves as a proxy for viable cell number.

Test [2] has as its system NCI-H358 (K-Ras G12C). The test is described as above. It is filed as cell-based. The settings on record: Homo sapiens, NCI-H358, 120 h, 5-day treatment; read-out: H358 Cell Viability assay data (K-Ras G12C, IC50). The essentials: as §1
For test [3], the target named is KRAS G12C (Homo sapiens, UniProt P01116+P62937, G12C). Nature of the test: Disruption of BRAF RBD interaction with Ras (FRET / MOA assay, with Cyclophilin A). It is filed as biochemical. The settings on record: read-out: KRAS G12C FRET data, IC50. The essentials: (§2)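 First, compounds at a ten-point threefold dilution series (highest final concentration 30 μM) were incubated with nucleotide-loaded K-Ras, Cyclophilin A and BRAF RBD for 3 h at 25 °C. Next, detection antibodies were added for 1.5 h. Finally, IC50 was calculated from TR-FRET ratio decreases against DMSO controls.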

Test [4] addresses KRAS G12D (Homo sapiens, UniProt P01116+P62937, G12D). Described as above. Format: biochemical. The settings on record: read-out: KRAS G12D FRET data, IC50. The essentials:
as §2

Test [5] deals with KRAS G12S (Homo sapiens, UniProt P01116+P62937, G12S). The test is described as above. It is filed as biochemical. The settings on record: read-out: KRAS G12S FRET data, IC50. The essentials:
as §2

Test [6] has as its target KRAS G12V (Homo sapiens, UniProt P01116+P62937, G12V). The test is described as above. It is filed as biochemical. The settings on record: KRAS G12V; read-out: KRAS G12V FRET data IC50. In outline:
as §2

For test [7], the target named is KRAS G13C (Homo sapiens, UniProt P01116+P62937, G13C). The description is as above. It is filed as biochemical. Particulars: read-out: KRAS G13C FRET data, IC50. In outline: as §2
Test [8] has as its target KRAS G13D (Homo sapiens, UniProt P01116+P62937, G13D). The description is as above. It is filed as biochemical. Particulars: KRAS G13D; read-out: KRAS G13D FRET data IC50. The essentials:
as §2

The target of test [9] is KRAS WT (Homo sapiens, UniProt P01116+P62937). The description is as above. It is filed as biochemical. The settings on record: KRAS WT; read-out: KRAS WT FRET data IC50. The essentials:
as §2

Test [10] deals with NRAS G12C (Homo sapiens, UniProt P01111+P62937, G12C). The test is described as above. It is filed as biochemical. The settings on record: NRAS G12C; read-out: NRAS G12C FRET data IC50.
The target in test [11] is KRAS Q61H (Homo sapiens, UniProt P01116+P62937, Q61H). Described as above. Format: biochemical. Particulars: KRAS Q61H; read-out: KRAS Q61H FRET data IC50. In outline: (§3)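 TR-FRET in 25 mM HEPES pH 7.3, 100 mM NaCl, 5 mM MgCl2, 0.1% BSA: 25 μM Cyclophilin A, 12.5 nM His6-Ras-GMPPNP, 50 nM GST-BRAF RBD with compound (10-point 3-fold series from 30 μM), 3 h at 25° C. Anti-His Eu/anti-GST APC added, 1.5 h more; IC50 from decreased FRET ratio versus DMSO.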

Test [12] addresses NRAS Q61K (Homo sapiens, UniProt P01111+P62937, Q61K). Described as above. Particulars: NRAS Q61K; read-out: NRAS Q61K FRET data IC50. It is filed as biochemical. In outline:
as §3

Test [13] concerns the target NRAS Q61R (Homo sapiens, UniProt P01111+P62937, Q61R). Described as above. Format: biochemical. Particulars: NRAS Q61R; read-out: NRAS Q61R FRET data IC50. The essentials: as §3
Test [14] has as its target NRAS WT (Homo sapiens, UniProt P01111+P62937). The test is described as above. It is filed as biochemical. Particulars: NRAS WT; read-out: NRAS WT FRET data IC50. The essentials: as §3

Data on 9 compounds can be found in patent publication US20230233569A1 (Revolution Medicines, Inc., priority 2020, published 2023).

KRAS WT, sequence (P01116 1-169 isoform P01116-2 limits assumed): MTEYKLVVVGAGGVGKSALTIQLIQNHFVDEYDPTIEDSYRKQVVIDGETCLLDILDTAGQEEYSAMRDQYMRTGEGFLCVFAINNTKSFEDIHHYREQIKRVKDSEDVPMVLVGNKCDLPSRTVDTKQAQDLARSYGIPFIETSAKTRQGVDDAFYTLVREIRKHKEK
KRAS WT, sequence (P62937 whole entry): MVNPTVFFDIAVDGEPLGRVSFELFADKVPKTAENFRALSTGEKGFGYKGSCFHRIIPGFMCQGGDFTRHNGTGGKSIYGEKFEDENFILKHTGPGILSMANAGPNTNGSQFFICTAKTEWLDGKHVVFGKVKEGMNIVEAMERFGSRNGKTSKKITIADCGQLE
KRAS Q61H, sequence (P01116 1-169 isoform P01116-2 Q61H limits assumed): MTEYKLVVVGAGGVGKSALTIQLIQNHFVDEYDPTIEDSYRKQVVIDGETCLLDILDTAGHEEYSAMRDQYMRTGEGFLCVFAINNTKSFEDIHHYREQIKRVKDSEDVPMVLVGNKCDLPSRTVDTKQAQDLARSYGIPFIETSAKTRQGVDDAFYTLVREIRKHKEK
KRAS Q61H, sequence (P62937 whole entry): as the sequence (P62937 whole entry) above
KRAS G13C, sequence (P01116 1-169 isoform P01116-2 G13C): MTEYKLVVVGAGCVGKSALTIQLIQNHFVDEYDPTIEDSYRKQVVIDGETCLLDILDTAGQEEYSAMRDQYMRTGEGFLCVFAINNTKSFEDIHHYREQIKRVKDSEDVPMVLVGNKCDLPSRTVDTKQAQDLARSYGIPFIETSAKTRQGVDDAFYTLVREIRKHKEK
KRAS G13C, sequence (P62937 whole entry): as the sequence (P62937 whole entry) above
KRAS G12D, sequence (P01116 1-169 isoform P01116-2 G12D limits assumed): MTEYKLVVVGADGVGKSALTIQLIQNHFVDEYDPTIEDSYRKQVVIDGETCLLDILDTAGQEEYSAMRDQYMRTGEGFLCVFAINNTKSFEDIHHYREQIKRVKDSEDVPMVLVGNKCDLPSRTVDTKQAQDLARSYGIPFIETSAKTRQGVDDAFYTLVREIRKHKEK
KRAS G12D, sequence (P62937 whole entry): as the sequence (P62937 whole entry) above
NRAS Q61R, sequence (P01111 whole entry Q61R): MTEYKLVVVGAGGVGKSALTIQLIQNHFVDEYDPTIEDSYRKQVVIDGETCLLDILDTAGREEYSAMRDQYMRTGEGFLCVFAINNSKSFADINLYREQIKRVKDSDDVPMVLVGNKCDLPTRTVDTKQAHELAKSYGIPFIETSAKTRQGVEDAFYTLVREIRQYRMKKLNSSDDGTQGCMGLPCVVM
NRAS Q61R, sequence (P62937 whole entry): as the sequence (P62937 whole entry) above
NRAS G12C, sequence (P01111 whole entry G12C): as the sequence (P01111 whole entry Q61R) above, with G12C, R61Q counted along it
NRAS G12C, sequence (P62937 whole entry): as the sequence (P62937 whole entry) above
KRAS G12S, sequence (P01116 1-169 isoform P01116-2 G12S limits assumed): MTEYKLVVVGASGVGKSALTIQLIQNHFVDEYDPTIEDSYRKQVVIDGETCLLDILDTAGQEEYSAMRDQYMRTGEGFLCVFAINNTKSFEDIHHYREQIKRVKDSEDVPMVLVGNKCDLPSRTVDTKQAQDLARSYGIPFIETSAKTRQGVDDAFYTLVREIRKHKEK
KRAS G12S, sequence (P62937 whole entry): as the sequence (P62937 whole entry) above
NRAS WT, sequence (P01111 whole entry): as the sequence (P01111 whole entry Q61R) above, with R61Q counted along it
NRAS WT, sequence (P62937 whole entry): as the sequence (P62937 whole entry) above
KRAS G13D, sequence (P01116 1-169 isoform P01116-2 G13D limits assumed): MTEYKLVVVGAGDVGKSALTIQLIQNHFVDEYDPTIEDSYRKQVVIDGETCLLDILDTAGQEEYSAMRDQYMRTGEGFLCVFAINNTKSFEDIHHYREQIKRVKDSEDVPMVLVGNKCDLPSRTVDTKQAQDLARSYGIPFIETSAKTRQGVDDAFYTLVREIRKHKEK
KRAS G13D, sequence (P62937 whole entry): as the sequence (P62937 whole entry) above
KRAS G12C, sequence (P01116 1-169 isoform P01116-2 G12C): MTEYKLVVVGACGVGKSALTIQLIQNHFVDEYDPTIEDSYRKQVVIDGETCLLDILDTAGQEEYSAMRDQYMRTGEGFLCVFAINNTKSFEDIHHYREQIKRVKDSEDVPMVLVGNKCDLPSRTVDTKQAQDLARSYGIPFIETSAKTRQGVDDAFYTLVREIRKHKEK
KRAS G12C, sequence (P62937 whole entry): as the sequence (P62937 whole entry) above
NRAS Q61K, sequence (P01111 whole entry Q61K): as the sequence (P01111 whole entry Q61R) above, with R61K counted along it
NRAS Q61K, sequence (P62937 whole entry): as the sequence (P62937 whole entry) above
KRAS G12V, sequence (P01116 1-169 isoform P01116-2 G12V limits assumed): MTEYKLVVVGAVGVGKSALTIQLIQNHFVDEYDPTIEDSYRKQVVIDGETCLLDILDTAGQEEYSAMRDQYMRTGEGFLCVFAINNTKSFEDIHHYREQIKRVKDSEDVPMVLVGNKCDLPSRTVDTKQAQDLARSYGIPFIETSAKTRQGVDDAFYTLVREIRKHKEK
KRAS G12V, sequence (P62937 whole entry): as the sequence (P62937 whole entry) above

For `CCn1c(-c2cccnc2[C@H](C)OC)c2c3cc(ccc31)-c1csc(n1)C[C@H](NC(=O)[C@H](C(C)C)N(C)C(=O)N1CCCC13COC3)C(=O)N1CCC[C@H](N1)C(=O)OCC(C)(C)C2` (atropisomer, axis not shown) [Example A528], the IC50 lay within 10 to 100 nM in test [1]; 10 to 100 nM in [2]; 10 to 100 nM in test [3]; 100 to 1000 nM in test [4]; 100 to 1000 nM in test [5]; 100 to 1000 nM in test [6]. The IC50 in test [7] lay in the range of 100 to 1000 nM; in [8], 100 to 1000 nM; in [9] it was 10 to 100 nM; in test [10], 10 to 100 nM; in test [11] it was 10 to 100 nM; in [12], 10 to 100 nM. Further, the IC50 in test [13] and in test [14] was 10 to 100 nM throughout.
As for `CCn1c(-c2cc(N3CCN(C)CC3)cnc2[C@H](C)OC)c2c3cc(ccc31)-c1csc(n1)C[C@H](NC(=O)[C@H](C1CCCC1)N(C)C(=O)N1CCC1)C(=O)N1CCC[C@H](N1)C(=O)OCC(C)(C)C2` (atropisomer, axis not shown) [Example A529], the half-maximal inhibitory concentration (IC50) in test [1] is less than 10 nM; in test [2], less than 10 nM; in [3] it was 10 to 100 nM; in test [4], 100 to 1000 nM; in [5], 10 to 100 nM; in test [6], 10 to 100 nM. The IC50 in [7], in test [8], in [9], in test [10], in test [11] and in [12] was 10 to 100 nM throughout. The IC50 in test [13] and in test [14] was 10 to 100 nM in each case.
With `CCn1c(-c2cccnc2[C@H](C)OC)c2c3cc(ccc31)-c1csc(n1)C[C@H](NC(=O)[C@H](C(C)C)N(C)C(=O)N1CCC[C@@H](N(C)C)C1)C(=O)N1CCC[C@H](N1)C(=O)OCC(C)(C)C2` (atropisomer, axis not shown) [Example A531], the half-inhibitory concentration (IC50) lay within 10 to 100 nM in [1]; 10 to 100 nM in test [2]; 100 to 1000 nM in test [3]; 100 to 1000 nM in [4]; 100 to 1000 nM in [5]; 100 to 1000 nM in [6]. The IC50 is 100 to 1000 nM in test [7]; 100 to 1000 nM in test [8]; 100 to 1000 nM in test [9]; 10 to 100 nM in test [10]; 10 to 100 nM in test [11]; 10 to 100 nM in [12]. The IC50 is 100 to 1000 nM in [13] and 10 to 100 nM in [14].
With `CCn1c(-c2cccnc2[C@H](C)OC)c2c3cc(ccc31)-c1csc(n1)C[C@H](NC(=O)[C@H](C(C)C)N(C)C(=O)N1CC3(CC(N(C)CCOC)C3)C1)C(=O)N1CCC[C@H](N1)C(=O)OCC(C)(C)C2` (atropisomer, axis not shown) [Example A532], the IC50 in test [1] was in the range of 10 to 100 nM; in test [2], 10 to 100 nM; in [3], 100 to 1000 nM; in [4], 1000 to 10000 nM; in test [5], 100 to 1000 nM; in [6], 100 to 1000 nM. The IC50 in test [7] lay within 100 to 1000 nM; in test [8], 100 to 1000 nM; in [9], 100 to 1000 nM; in [10], 100 to 1000 nM; in [11], 100 to 1000 nM; in test [12] it was 10 to 100 nM. Moreover, the half-inhibitory concentration (IC50) in [13] and in [14] was 100 to 1000 nM in each case.
As for `CCn1c(-c2cccnc2[C@H](C)OC)c2c3cc(ccc31)-c1cc(O)cc(c1)C[C@H](NC(=O)[C@H](C(C)C)N(C)C(=O)[C@@H]1OCC[C@@H]1c1cccnc1)C(=O)N1CCC[C@H](N1)C(=O)OCC(C)(C)C2` (atropisomer, axis not shown) [Example A546], the 50% inhibitory concentration (IC50) in test [1] is 10 to 100 nM; in [2], less than 10 nM; in [3] it was less than 10 nM; in test [4] it was 10 to 100 nM; in test [5] it was 10 to 100 nM; in test [6] it was 10 to 100 nM. Also, the IC50 in test [7] is 10 to 100 nM; in [8], 10 to 100 nM; in test [9] it was 10 to 100 nM; in test [10], 10 to 100 nM; in test [11], less than 10 nM; in test [12], 10 to 100 nM. Moreover, the IC50 in [13] and in test [14] was 10 to 100 nM throughout.
With `CCn1c(-c2cccnc2[C@H](C)OC)c2c3cc(ccc31)-c1csc(n1)C[C@H](NC(=O)[C@H](C(C)C)N(C)C(=O)N1CC(S(=O)(=O)NC)C1)C(=O)N1CCC[C@H](N1)C(=O)OCC(C)(C)C2` (atropisomer, axis not shown) [Example A549], the 50% inhibitory concentration (IC50) in test [1] is 10 to 100 nM; in test [2] it was 10 to 100 nM; in [3], 10 to 100 nM; in test [4], 100 to 1000 nM; in test [5], 100 to 1000 nM; in test [6], 100 to 1000 nM. Further, the IC50 is 100 to 1000 nM in test [7]; 100 to 1000 nM in test [8]; 100 to 1000 nM in [9]; 10 to 100 nM in test [10]; 10 to 100 nM in [11]; 10 to 100 nM in test [12]. Also, the IC50 in test [13] and in test [14] was 100 to 1000 nM in each case.
With `CCn1c(-c2cccnc2[C@H](C)OC)c2c3cc(ccc31)-c1csc(n1)C[C@H](NC(=O)[C@H](C(C)C)N(C)C(=O)N1CC(N(C)S(C)(=O)=O)C1)C(=O)N1CCC[C@H](N1)C(=O)OCC(C)(C)C2` (atropisomer, axis not shown) [Example A550], the IC50 in test [1] was in the range of 10 to 100 nM; in [2], 10 to 100 nM; in test [3], 10 to 100 nM; in test [4] it was 1000 to 10000 nM; in [5], 100 to 1000 nM; in test [6], 100 to 1000 nM. In addition, the concentration for half-maximal inhibition (IC50) in test [7] fell in the range of 100 to 1000 nM; in [8] it was 100 to 1000 nM; in test [9], 100 to 1000 nM; in test [10], 10 to 100 nM; in test [11], 10 to 100 nM; in test [12], 10 to 100 nM. In addition, the half-inhibitory concentration (IC50) in [13] and in [14] was 100 to 1000 nM throughout.
Turning to `CCn1c(-c2cc(N3CCN(C)CC3)cnc2[C@H](C)OC)c2c3cc(ccc31)-c1csc(n1)C[C@H](NC(=O)[C@H](C(C)C)N(C)C(=O)N1CCOCC1)C(=O)N1CCC[C@H](N1)C(=O)OCC(C)(C)C2` (atropisomer, axis not shown) [Example A555], the IC50 in test [1] is less than 10 nM; in test [2], less than 10 nM; in test [3], 10 to 100 nM; in test [4] it was 100 to 1000 nM; in test [5], 10 to 100 nM; in test [6] it was 10 to 100 nM. In addition, the IC50 in [7] was in the range of 10 to 100 nM; in test [8], 100 to 1000 nM; in test [9] it was 10 to 100 nM; in test [10], 10 to 100 nM; in [11] it was 10 to 100 nM; in test [12] it was 10 to 100 nM. The half-inhibitory concentration (IC50) in test [13] and in [14] was 10 to 100 nM each time.
As for `CCn1c(-c2cc(N3CCN(C)CC3)cnc2[C@H](C)OC)c2c3cc(ccc31)-c1cccc(c1)C[C@H](NC(=O)[C@H](C(C)C)N(C)C(=O)[C@@H]1OCC[C@@H]1c1ccccc1)C(=O)N1CCC[C@H](N1)C(=O)OCC(C)(C)C2` (atropisomer, axis not shown) [Example A562], the 50% inhibitory concentration (IC50) in test [1] was less than 10 nM; in test [2] it was less than 10 nM; in test [3] it was 10 to 100 nM; in test [4] it was 100 to 1000 nM; in test [5], 100 to 1000 nM; in test [6], 10 to 100 nM. Besides, the half-inhibitory concentration (IC50) in test [7] was in the range of 10 to 100 nM; in [8], 100 to 1000 nM; in test [9], 10 to 100 nM; in test [10], 10 to 100 nM; in test [11] it was 10 to 100 nM; in [12], 100 to 1000 nM. The IC50 in test [13] and in [14] was 10 to 100 nM each time.

As usually defined, the IC50 is the midpoint of a concentration-inhibition curve.
